Converted amounts (≈) assume the structure as drawn. Where a SMILES comes first, the peptide text is derived from it. [ ]: non-standard residue; d: D form. The star is where a group is joined. ξ: configuration not given here. Octanoyl(7-Me) = CC(C)CCCCCC(=O)*; Hexanoyl(4ξ-Me) = CCC(C)CCC(=O)*; dOrn = NCCC[C@@H](N)C(=O)O; Orn = NCCC[C@H](N)C(=O)O; Dap = NC[C@H](N)C(=O)O; Alloc = C=CCOC(=O)*; OAll = C=CCO*
Legend:
S. aureus USA300 = type: cell-based, Staphylococcus aureus; conditions: microbroth dilution per CLSI, MHB, 18 h at 37 °C, visual inspection, three technical replicates
Procedure, shortened: (§1)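 CLSI broth microdilution in MHB, polypropylene plates; log-phase bacteria (OD600 ~0.5, grown in TSB, with kanamycin for the E. coli ATCC 25922 MCR-1 strain) added at 2 × 10^5 CFU/mL. Read visually after 18 h at 37 °C with shaking; MIC = lowest concentration preventing visible growth, three technical replicates.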

E. coli ATCC 25922 = type: cell-based, Escherichia coli; conditions: for MIC (µg/mL) against E. coli (ATCC 25922): (Supplement 2); for Antibacterial activity (MIC) E. coli ATCC 25922: microbroth dilution per CLSI, MHB, 18 h at 37 °C, visual inspection, three technical replicates
Procedure, shortened: as §1

E. coli (MCR-1) = type: cell-based, Escherichia coli; conditions: microbroth dilution per CLSI, MHB, 18 h at 37 °C, visual inspection, three technical replicates, E. coli 25922 carrying mcr-1
Procedure, shortened: as §1

A. baumannii ATCC 17961 = type: cell-based, Acinetobacter baumannii; conditions: microbroth dilution per CLSI, MHB, 18 h at 37 °C, visual inspection, three technical replicates
Procedure, shortened: as §1

P. aeruginosa PAO1 = type: cell-based, Pseudomonas aeruginosa; conditions: microbroth dilution per CLSI, MHB, 18 h at 37 °C, visual inspection, three technical replicates
Procedure, shortened: as §1

K. pneumoniae ATCC 13883 = type: cell-based, Klebsiella pneumoniae; conditions: microbroth dilution per CLSI, MHB, 18 h at 37 °C, visual inspection, three technical replicates
Procedure, shortened: as §1

Structure (SMILES)	Antibacterial activity (MIC) S. aureus USA300 (S. aureus USA300) [µg/mL]	MIC (µg/mL) against E. coli (ATCC 25922) (E. coli ATCC 25922) [µg/mL]	Antibacterial activity (MIC) E. coli ATCC 25922 (E. coli ATCC 25922) [µg/mL]	Antibacterial activity (MIC) E. coli (MCR-1) (E. coli (MCR-1)) [µg/mL]	Antibacterial activity (MIC) A. baumannii ATCC 17961 (A. baumannii ATCC 17961) [µg/mL]	Antibacterial activity (MIC) P. aeruginosa PAO1 (P. aeruginosa PAO1) [µg/mL]	Antibacterial activity (MIC) K. pneumoniae ATCC 13883 (K. pneumoniae ATCC 13883) [µg/mL]
C=CCOC(=O)NC[C@H](NC(=O)[C@H](Cc1c[nH]c2ccccc12)NC(=O)[C@@H](CCCN)NC(=O)CNC(=O)[C@H](CCCN)NC(=O)[C@@H](CCCN)NC(=O)[C@@H](Cc1c[nH]c2ccccc12)NC(=O)[C@@H](Cc1ccc(O)cc1)NC(=O)[C@@H](CO)NC(=O)CCCCCC(C)C)C(=O)N[C@H](C(=O)N[C@@H](CC(N)=O)C(=O)NCC(=O)NCC(N)=O)[C@@H](C)CC [LL(Dap[Alloc]9)-NH2 (50)] ({Octanoyl(7-Me)}-[dS][dY][dW][dOrn][Orn]G[dOrn]W[Dap](Alloc)INGG-NH2)	>32	2 (≈ 1.18 µM)	2	4	4	8	4
CC(C)CCCCCC(=O)N[C@H](CO)C(=O)N[C@H](Cc1ccc(O)cc1)C(=O)N[C@H](Cc1c[nH]c2ccccc12)C(=O)N[C@H](CCCN)C(=O)N[C@@H](CCCN)C(=O)NCC(=O)N[C@H](CCCN)C(=O)N[C@@H](Cc1c[nH]c2ccccc12)C(N)=O [Δ9–13LL-NH2 (16)] ({Octanoyl(7-Me)}-[dS][dY][dW][dOrn][Orn]G[dOrn]W-NH2)	>32		>32	>32	32	>32	>32
CC[C@H](C)[C@H](NC(=O)[C@@H](NC(=O)[C@H](Cc1c[nH]c2ccccc12)NC(=O)[C@@H](CCCN)NC(=O)[C@H](C)NC(=O)[C@H](CCCN)NC(=O)[C@@H](CCCN)NC(=O)[C@@H](Cc1c[nH]c2ccccc12)NC(=O)[C@@H](Cc1ccc(O)cc1)NC(=O)[C@@H](CO)NC(=O)CCCCCC(C)C)[C@@H](C)O)C(=O)N[C@@H](CC(N)=O)C(=O)NCC(=O)NCC(N)=O [LL(Ala6)-NH2 (34)] ({Octanoyl(7-Me)}-[dS][dY][dW][dOrn][Orn]A[dOrn]WTINGG-NH2)	>32	4 to 8	4 to 8	8	16	16	8
CC[C@H](C)[C@H](NC(=O)[C@H](CCSC)NC(=O)[C@H](Cc1c[nH]c2ccccc12)NC(=O)[C@@H](CCCN)NC(=O)CNC(=O)[C@H](CCCN)NC(=O)[C@@H](CCCN)NC(=O)[C@@H](Cc1c[nH]c2ccccc12)NC(=O)[C@@H](Cc1ccc(O)cc1)NC(=O)[C@@H](CO)NC(=O)CCCCCC(C)C)C(=O)N[C@@H](CC(N)=O)C(=O)NCC(=O)NCC(N)=O [LL(Met9)-NH2 (44)] ({Octanoyl(7-Me)}-[dS][dY][dW][dOrn][Orn]G[dOrn]WMINGG-NH2)	>32	4 (≈ 2.42 µM)	4	4	4	4	4
CC[C@H](C)[C@H](NC(=O)[C@@H](NC(=O)[C@H](Cc1c[nH]c2ccccc12)NC(=O)[C@@H](CCCN)NC(=O)CNC(=O)[C@H](CCCN)NC(=O)[C@@H](CCCN)NC(=O)[C@@H](Cc1c[nH]c2ccccc12)NC(=O)[C@@H](Cc1ccc(O)cc1)NC(=O)[C@@H](CO)NC(=O)CCCCCC(C)C)[C@@H](C)O)C(=O)N[C@@H](CC(N)=O)C(=O)NCC(=O)N[C@@H](C)C(N)=O [LL(Ala13)-NH2 (41)] ({Octanoyl(7-Me)}-[dS][dY][dW][dOrn][Orn]G[dOrn]WTINGA-NH2)	>32	4 to 8	4 to 8	8	8	4	8
CC[C@H](C)[C@H](NC(=O)[C@H](Cc1c[nH]c2ccccc12)NC(=O)[C@H](Cc1c[nH]c2ccccc12)NC(=O)[C@@H](CCCN)NC(=O)CNC(=O)[C@H](CCCN)NC(=O)[C@@H](CCCN)NC(=O)[C@@H](Cc1c[nH]c2ccccc12)NC(=O)[C@@H](Cc1ccc(O)cc1)NC(=O)[C@@H](CO)NC(=O)CCCCCC(C)C)C(=O)N[C@@H](CC(N)=O)C(=O)NCC(=O)NCC(N)=O [LL(Trp9)-NH2 (45)] ({Octanoyl(7-Me)}-[dS][dY][dW][dOrn][Orn]G[dOrn]WWINGG-NH2)	>32	4 (≈ 2.34 µM)	4	4	4	16	4
C=CCOC(=O)CC[C@H](NC(=O)[C@H](Cc1c[nH]c2ccccc12)NC(=O)[C@@H](CCCN)NC(=O)CNC(=O)[C@H](CCCN)NC(=O)[C@@H](CCCN)NC(=O)[C@@H](Cc1c[nH]c2ccccc12)NC(=O)[C@@H](Cc1ccc(O)cc1)NC(=O)[C@@H](CO)NC(=O)CCCCCC(C)C)C(=O)N[C@H](C(=O)N[C@@H](CC(N)=O)C(=O)NCC(=O)NCC(N)=O)[C@@H](C)CC [LL(Glu[OAll]9)-NH2 (51)] ({Octanoyl(7-Me)}-[dS][dY][dW][dOrn][Orn]G[dOrn]WE(OAll)INGG-NH2)	>32	16 (≈ 9.47 µM)	16	16	16	>32	>32
CC[C@H](C)[C@H](NC(=O)[C@@H](NC(=O)[C@H](Cc1c[nH]c2ccccc12)NC(=O)[C@@H](CCCN)NC(=O)CNC(=O)[C@H](C)NC(=O)[C@@H](CCCN)NC(=O)[C@@H](Cc1c[nH]c2ccccc12)NC(=O)[C@@H](Cc1ccc(O)cc1)NC(=O)[C@@H](CO)NC(=O)CCCCCC(C)C)[C@@H](C)O)C(=O)N[C@@H](CC(N)=O)C(=O)NCC(=O)NCC(N)=O [LL(Ala5)-NH2 (33)] ({Octanoyl(7-Me)}-[dS][dY][dW][dOrn]AG[dOrn]WTINGG-NH2)	>32		32	>32	>32	32	>32
CCC(C)CCC(=O)N[C@H](CC(N)=O)C(=O)N[C@H](Cc1ccc(O)cc1)C(=O)N[C@H](Cc1c[nH]c2ccccc12)C(=O)N[C@H](CCCN)C(=O)N[C@@H](CCCN)C(=O)NCC(=O)N[C@H](CCCN)C(=O)N[C@@H](Cc1c[nH]c2ccccc12)C(=O)N[C@@H](CCC(N)=O)C(=O)N[C@H](C(=O)NCC(N)=O)[C@@H](C)CC (some centres unmarked) [Δ12LB (Gln9)-NH2 (59)] ({Hexanoyl(4ξ-Me)}-[dN][dY][dW][dOrn][Orn]G[dOrn]WQIG-NH2)	>32	8 (≈ 5.42 µM)	8	8	16	2	16
CC[C@H](C)[C@H](NC(=O)[C@H](CC(N)=O)NC(=O)[C@H](Cc1c[nH]c2ccccc12)NC(=O)[C@@H](CCCN)NC(=O)CNC(=O)[C@H](CCCN)NC(=O)[C@@H](CCCN)NC(=O)[C@@H](Cc1c[nH]c2ccccc12)NC(=O)[C@@H](Cc1ccc(O)cc1)NC(=O)[C@@H](CO)NC(=O)CCCCCC(C)C)C(=O)N[C@@H](CC(N)=O)C(=O)NCC(=O)NCC(N)=O [LL(Asn9)-NH2 (47)] ({Octanoyl(7-Me)}-[dS][dY][dW][dOrn][Orn]G[dOrn]WNINGG-NH2)	>32	8 (≈ 4.89 µM)	8	8	16	8	8 to 16
CCC(C)CCC(=O)N[C@H](CC(N)=O)C(=O)N[C@H](Cc1ccc(O)cc1)C(=O)N[C@H](Cc1c[nH]c2ccccc12)C(=O)N[C@H](CCCN)C(=O)N[C@@H](CCCN)C(=O)NCC(=O)N[C@H](CCCN)C(=O)N[C@@H](Cc1c[nH]c2ccccc12)C(=O)N[C@H](C(=O)N[C@H](C(=O)NCC(N)=O)[C@@H](C)CC)[C@@H](C)O (some centres unmarked) [Δ12LB-NH2 (9)] ({Hexanoyl(4ξ-Me)}-[dN][dY][dW][dOrn][Orn]G[dOrn]WTIG-NH2)	>32		8	16	8	4	8

Reference: publication PMC10150354, “Linearization of the Brevicidine and Laterocidine Lipopeptides Yields Analogues That Retain Full Antibacterial Activity” (Journal of Medicinal Chemistry, 2023)
